Measurements: patent US12479847B2 (DANA-FARBER CANCER INSTITUTE, INC., priority 2019, dated 2025)

Columns and labels:
Assay in all cases: KINOMEscan (ScanMAX) kinase profiling
Assay type in all cases: binding
panel of 468 kinases [1] = molecular target: T1, panel of 468 kinases (Homo sapiens, UniProt P42336); details: PIK3CA; 1 μM; read-out: % control
T1 construct: purchased KINOMEscan (ScanMAX) service

panel of 468 kinases [2] = molecular target: T2, panel of 468 kinases (Homo sapiens, UniProt Q6XUX3); details: RIPK5; 1 μM; read-out: % control
T2 construct: purchased KINOMEscan (ScanMAX) service
T2 sequence (Q6XUX3 1-929): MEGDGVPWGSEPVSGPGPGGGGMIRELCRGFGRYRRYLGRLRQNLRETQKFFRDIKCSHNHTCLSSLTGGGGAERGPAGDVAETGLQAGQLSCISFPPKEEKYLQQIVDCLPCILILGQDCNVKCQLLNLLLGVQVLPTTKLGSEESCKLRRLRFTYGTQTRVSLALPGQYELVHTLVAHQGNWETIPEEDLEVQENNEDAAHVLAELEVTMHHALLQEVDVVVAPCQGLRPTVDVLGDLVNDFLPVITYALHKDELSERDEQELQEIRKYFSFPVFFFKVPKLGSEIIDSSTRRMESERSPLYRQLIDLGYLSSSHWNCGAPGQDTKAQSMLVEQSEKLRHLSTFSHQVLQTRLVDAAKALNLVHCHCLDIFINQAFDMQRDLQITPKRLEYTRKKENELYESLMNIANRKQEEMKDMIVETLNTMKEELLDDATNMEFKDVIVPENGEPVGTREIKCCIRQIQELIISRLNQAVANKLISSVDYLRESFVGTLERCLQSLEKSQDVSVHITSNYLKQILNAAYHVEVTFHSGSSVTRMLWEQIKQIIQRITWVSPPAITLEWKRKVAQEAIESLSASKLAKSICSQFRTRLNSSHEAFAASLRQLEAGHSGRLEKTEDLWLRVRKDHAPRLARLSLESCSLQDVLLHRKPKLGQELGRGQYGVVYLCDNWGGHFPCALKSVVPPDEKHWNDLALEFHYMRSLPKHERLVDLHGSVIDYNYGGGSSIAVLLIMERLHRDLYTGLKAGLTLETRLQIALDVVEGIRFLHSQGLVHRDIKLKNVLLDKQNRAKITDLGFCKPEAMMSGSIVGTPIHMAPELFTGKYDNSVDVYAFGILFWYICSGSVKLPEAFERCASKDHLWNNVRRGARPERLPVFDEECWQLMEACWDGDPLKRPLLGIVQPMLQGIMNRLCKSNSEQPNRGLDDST

panel of 468 kinases [3] = molecular target: T3, panel of 468 kinases (Homo sapiens, UniProt Q8WTQ7); details: GRK7; 1 μM; read-out: % control
T3 construct: purchased KINOMEscan (ScanMAX) service
T3 sequence (Q8WTQ7 1-553): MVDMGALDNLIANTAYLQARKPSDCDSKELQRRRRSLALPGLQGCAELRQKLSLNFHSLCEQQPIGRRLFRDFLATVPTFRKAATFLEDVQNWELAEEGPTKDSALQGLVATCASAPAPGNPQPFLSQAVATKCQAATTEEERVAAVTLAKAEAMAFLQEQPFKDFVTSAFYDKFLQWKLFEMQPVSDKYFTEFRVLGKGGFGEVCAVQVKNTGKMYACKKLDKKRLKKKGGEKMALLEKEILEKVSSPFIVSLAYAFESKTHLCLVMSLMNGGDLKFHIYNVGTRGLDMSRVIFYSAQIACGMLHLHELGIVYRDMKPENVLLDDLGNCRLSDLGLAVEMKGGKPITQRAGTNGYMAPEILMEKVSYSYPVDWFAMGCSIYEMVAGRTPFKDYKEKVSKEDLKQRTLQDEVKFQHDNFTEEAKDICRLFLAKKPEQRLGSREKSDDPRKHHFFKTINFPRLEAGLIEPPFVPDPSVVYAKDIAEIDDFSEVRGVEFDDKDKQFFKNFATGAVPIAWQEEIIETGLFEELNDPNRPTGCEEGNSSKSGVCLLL

panel of 468 kinases [4] = molecular target: T4, panel of 468 kinases (Homo sapiens, UniProt Q96Q40); details: PFTAIRE2; 1 μM; read-out: % control
T4 construct: purchased KINOMEscan (ScanMAX) service

panel of 468 kinases [5] = molecular target: T5, panel of 468 kinases (Homo sapiens, UniProt Q9C098); details: DCAMKL3; 1 μM; read-out: % control
T5 construct: purchased KINOMEscan (ScanMAX) service
T5 sequence (Q9C098 whole entry): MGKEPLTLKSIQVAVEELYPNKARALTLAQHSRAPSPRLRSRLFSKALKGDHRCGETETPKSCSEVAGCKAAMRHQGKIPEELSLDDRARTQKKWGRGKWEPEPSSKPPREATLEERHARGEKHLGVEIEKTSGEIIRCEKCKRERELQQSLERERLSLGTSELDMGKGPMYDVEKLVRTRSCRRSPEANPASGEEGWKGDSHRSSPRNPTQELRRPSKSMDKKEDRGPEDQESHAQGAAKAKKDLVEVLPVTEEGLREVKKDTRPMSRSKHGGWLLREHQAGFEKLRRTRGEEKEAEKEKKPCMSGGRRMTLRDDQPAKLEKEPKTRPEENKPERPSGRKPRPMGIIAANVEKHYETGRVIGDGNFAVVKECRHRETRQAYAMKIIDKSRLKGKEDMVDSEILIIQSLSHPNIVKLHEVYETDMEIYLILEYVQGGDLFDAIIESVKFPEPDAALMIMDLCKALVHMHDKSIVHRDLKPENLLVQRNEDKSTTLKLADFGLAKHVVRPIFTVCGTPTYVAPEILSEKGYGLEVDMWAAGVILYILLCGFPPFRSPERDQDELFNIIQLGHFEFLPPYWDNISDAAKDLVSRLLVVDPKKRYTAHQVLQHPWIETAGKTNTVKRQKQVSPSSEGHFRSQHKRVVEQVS

T4 sequence (Q96Q40 whole entry): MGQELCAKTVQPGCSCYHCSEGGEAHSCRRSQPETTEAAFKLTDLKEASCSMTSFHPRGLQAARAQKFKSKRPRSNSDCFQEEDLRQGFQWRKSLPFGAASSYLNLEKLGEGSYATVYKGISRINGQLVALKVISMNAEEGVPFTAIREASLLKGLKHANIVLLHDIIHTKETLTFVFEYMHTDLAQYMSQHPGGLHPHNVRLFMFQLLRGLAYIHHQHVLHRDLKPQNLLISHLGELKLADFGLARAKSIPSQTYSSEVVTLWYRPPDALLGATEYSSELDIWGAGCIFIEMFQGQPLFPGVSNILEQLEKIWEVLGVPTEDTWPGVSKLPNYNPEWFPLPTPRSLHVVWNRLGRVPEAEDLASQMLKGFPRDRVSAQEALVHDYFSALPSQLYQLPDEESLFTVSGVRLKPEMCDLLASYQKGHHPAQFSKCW
T1 sequence (P42336 whole entry): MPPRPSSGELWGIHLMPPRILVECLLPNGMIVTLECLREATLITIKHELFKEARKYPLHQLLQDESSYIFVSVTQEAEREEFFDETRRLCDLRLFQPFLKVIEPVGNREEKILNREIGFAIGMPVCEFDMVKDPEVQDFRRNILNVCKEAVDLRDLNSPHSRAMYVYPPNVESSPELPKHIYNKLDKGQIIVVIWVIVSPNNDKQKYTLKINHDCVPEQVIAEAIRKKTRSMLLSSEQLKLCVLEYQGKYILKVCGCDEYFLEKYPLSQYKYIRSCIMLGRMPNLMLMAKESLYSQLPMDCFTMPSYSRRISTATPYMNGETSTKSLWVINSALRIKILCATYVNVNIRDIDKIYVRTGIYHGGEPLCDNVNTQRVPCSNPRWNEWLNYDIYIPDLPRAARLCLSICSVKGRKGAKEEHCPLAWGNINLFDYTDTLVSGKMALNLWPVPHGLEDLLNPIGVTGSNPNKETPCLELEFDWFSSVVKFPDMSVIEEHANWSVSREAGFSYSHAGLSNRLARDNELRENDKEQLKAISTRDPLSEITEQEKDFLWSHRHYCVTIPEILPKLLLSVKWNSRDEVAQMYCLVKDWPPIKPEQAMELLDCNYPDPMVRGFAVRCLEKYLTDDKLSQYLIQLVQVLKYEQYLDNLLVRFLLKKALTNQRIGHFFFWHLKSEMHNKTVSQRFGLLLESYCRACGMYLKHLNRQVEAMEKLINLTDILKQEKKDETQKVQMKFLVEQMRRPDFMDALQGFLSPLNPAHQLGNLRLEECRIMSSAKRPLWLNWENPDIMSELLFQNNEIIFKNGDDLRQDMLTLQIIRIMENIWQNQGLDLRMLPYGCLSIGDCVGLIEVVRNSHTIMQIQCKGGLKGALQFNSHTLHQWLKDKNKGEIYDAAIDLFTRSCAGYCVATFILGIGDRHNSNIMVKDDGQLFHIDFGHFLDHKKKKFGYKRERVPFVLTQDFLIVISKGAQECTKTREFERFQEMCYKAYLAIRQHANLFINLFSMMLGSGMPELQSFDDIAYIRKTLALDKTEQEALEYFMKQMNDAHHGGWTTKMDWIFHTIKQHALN

SMILES | remaining binding at 1 µM (panel of 468 kinases [1]) [%] | remaining binding at 1 µM (panel of 468 kinases [2]) [%] | remaining binding at 1 µM (panel of 468 kinases [3]) [%] | remaining binding at 1 µM (panel of 468 kinases [4]) [%] | remaining binding at 1 µM (panel of 468 kinases [5]) [%]
CNc1nc(Nc2ccc(S(=O)(=O)N3CCC(N4CCOCC4)CC3)cc2OC)nc2[nH]cc(Cl)c12 [Compound 12, 5-chloro-N2-(2-methoxy-4-((4-morpholinopiperidin-1-yl)sulfonyl)phenyl)-N4-methyl-7H-pyrrolo[2,3-d]pyrimidine-2,4-diamine] | 97 | 23 | 100 | 100 | 100
CNc1nc(Nc2ccc(C(=O)N3CCC(N4CCOCC4)CC3)c3c2OCO3)nc2[nH]cc(Cl)c12 [Compound 75, (7-((5-chloro-4-(methylamino)-7H-pyrrolo[2,3-d]pyrimidin-2-yl)amino)benzo[d][1,3]dioxol-4-yl)(4-morpholinopiperidin-1-yl)methanone] | 93 | 9.9 | 100 | 100 | 100
CNc1nc(Nc2ccc(P3(=O)CCN(C4CCOCC4)CC3)cc2OC)nc2[nH]cc(Cl)c12 [Compound 77, 4-(4-((5-chloro-4-(methylamino)-7H-pyrrolo[2,3-d]pyrimidin-2-yl)amino)-3-methoxyphenyl)-1-(tetrahydro-2H-pyran-4-yl)-1,4-azaphosphinane 4-oxide] | 100 | 20 | 99 | 100 | 100
